“And” between values parts separate entries of the source, which are not always exact repeats. Equal values may be shown once. “Also recorded” adds a separate entry of the source.
How the values were obtained:
[1] = system: fire ants; conditions: Vander Meer et al., 2009; cited from earlier work
[2] = system: fire ants; assay: Field multiple-choice feeding bioassay (soybean oil consumption); assay type: in vivo, Solenopsis invicta; conditions: for difference among treatments and control in oil consumption / feeding preference on soybean oil (one-way ANOVA): all tested concentrations of each compound in soybean oil, field multiple-choice; for concentration at which oil consumption was numerically the highest: multiple-choice bioassay of known attractants; for concentration at which the effect on oil consumption was statistically significant compared to the control oil: Tukey's HSD; for effect of different concentrations on oil consumption (one-way ANOVA): first multiple-choice bioassay: 10-oxo 9.09, 4.54, 2.27, 1.14 mg/g, 11-oxo 8.62, 4.31, 2.15, 1.08 mg/g
Protocol: Multiple-choice and a paired two-choice bioassays were used in this study. A schematic representation of the bioassay set-ups is depicted in FIG. 19. Soybean oil was used as a food source for all the bioassays (Great Value, purchased from Walmart in Greenville Mississippi). The feeding apparatus was a filtered 1-ml pipette tip with the part 0.5 cm below the filter removed. In multiple-choice bioassays, four to six concentrations of tested compounds were tested with untreated soybean oil as a control, and in two-choice bioassays, the compound at certain concentration was tested against the control oil or oil treated with known fire ant attractant. Eighty microliter soybean oil was loaded onto each filter. After being weighed, the apparatuses with oil were placed in the field for about 2 hours. The apparatuses were then collected and frozen under −40° C. to kill all ants. The apparatuses were weighed again after all ants were removed from the apparatuses. The difference in the weight of apparatuses before and after the feeding bioassays was the oil consumption. There were six to 10 replicates for each bioassay. Feeding sites were at least 10 m away from each other. The difference in oil consumption among/between treatment and control apparatuses was used to evaluate the effect of tested compound on the feeding of fire ants. For multiple-choice bioassays, a one-way ANOVA was performed to compare the effect of different concentrations of tested compound on the percentage of oil consumption. Tukey's HSD test was used for multiple comparisons. A paired t test was used in statistical analysis for the two-choice bioassays. For each fatty acid, eight concentrations were tested in two separate multiple-choice bioassays. For 10-oxo-dodecnoic acid, the first set used in the multiple-choice bioassay included concentrations of 0.00 mg/g (control), 9.09 mg/g, 4.54 mg/g, 2.27 mg/g, and 1.14 mg/g, and the second set included 0.00 mg/g, […], 0.28 mg/g, 0.142 mg/g, and 0.07 mg/g. There were seven replicates for each set of bioassay. For 11-oxo-dodecnoic acid, the first set used in the multiple-choice bioassay included concentrations of 0.00 mg/g, 8.62 mg/g, 4.31 mg/g, 2.15 mg/g, and 1.08 mg/g, and the second set included 0.00 mg/g, 0.54 mg/g, 0.27 mg/g, 0.14 mg/g, and 0.07 mg/g. There were six replicates for the first set of bioassay and seven replicates for the second set of bioassay. Five oxo fatty acid analogs were tested in the filed using two-choice or multiple-choice bioassays. Tested were 8-oxo-decanoic acid, 9-oxo-2-decenoic acid, 9-oxo-decanoic acid, 11-oxo-tridecanoic acid, and 12-oxo-tetradecanoic acid. Eight oxo-decanoic acid was tested in a multiple-choice bioassay at 6 different concentrations including 0.00 mg/g, 0.81 mg/g, 0.41 mg/g, 0.20 mg/g, 0.10 mg/g, and 0.05 mg/g. There were 10 replicates for the bioassay. For 9-oxo-2-decenoic acid, a two-choice bioassay was conducted with each of the following six concentrations: 0.39 mg/g, 0.197 mg/g, 0.098 mg/g, 0.049 mg/g, 0.025 mg/g, and 0.012 mg/g. There were 5 to 7 replicates for each two-choice bioassay. For 9-oxo-decanoic acid, a multiple-choice bioassay was conducted at six concentrations including 0.00 mg/g, 0.124 mg/g, 0.062 mg/g, 0.031 mg/g, 0.016 mg/g, and 0.007 mg/g. There were 11 replicates. For 11-oxo-tridecanoic acid, a multiple-choice bioassay was conducted at five concentrations including 0.00 mg/g, 7.71 mg/g, 3.86 mg/g, 1.93 mg/g, and 0.96 mg/g. There were 6 replicates. For 12-oxo-tetradecanoic acid, a multiple-choice bioassay was conducted at six concentrations including 0.00 mg/g, 1.15 mg/g, 0.58 mg/g, 0.29 mg/g, 0.14 mg/g, and 0.07 mg/g. There were 7 replicates.

[3] = system: fire ants; assay: Field paired two-choice feeding bioassay (soybean oil consumption); assay type: in vivo, Solenopsis invicta
Protocol: Multiple-choice and a paired two-choice bioassays were used in this study. A schematic representation of the bioassay set-ups is depicted in FIG. 19. Soybean oil was used as a food source for all the bioassays (Great Value, purchased from Walmart in Greenville Mississippi). The feeding apparatus was a filtered 1-ml pipette tip with the part 0.5 cm below the filter removed. In multiple-choice bioassays, four to six concentrations of tested compounds were tested with untreated soybean oil as a control, and in two-choice bioassays, the compound at certain concentration was tested against the control oil or oil treated with known fire ant attractant. Eighty microliter soybean oil was loaded onto each filter. After being weighed, the apparatuses with oil were placed in the field for about 2 hours. The apparatuses were then collected and frozen under −40° C. to kill all ants. The apparatuses were weighed again after all ants were removed from the apparatuses. The difference in the weight of apparatuses before and after the feeding bioassays was the oil consumption. There were six to 10 replicates for each bioassay. Feeding sites were at least 10 m away from each other. The difference in oil consumption among/between treatment and control apparatuses was used to evaluate the effect of tested compound on the feeding of fire ants. For multiple-choice bioassays, a one-way ANOVA was performed to compare the effect of different concentrations of tested compound on the percentage of oil consumption. Tukey's HSD test was used for multiple comparisons. A paired t test was used in statistical analysis for the two-choice bioassays.
Five oxo fatty acid analogs were tested in the filed using two-choice or multiple-choice bioassays. Tested were 8-oxo-decanoic acid, 9-oxo-2-decenoic acid, 9-oxo-decanoic acid, 11-oxo-tridecanoic acid, and 12-oxo-tetradecanoic acid. Eight oxo-decanoic acid was tested in a multiple-choice bioassay at 6 different concentrations including 0.00 mg/g, 0.81 mg/g, 0.41 mg/g, 0.20 mg/g, 0.10 mg/g, and 0.05 mg/g. There were 10 replicates for the bioassay. For 9-oxo-2-decenoic acid, a two-choice bioassay was conducted with each of the following six concentrations: 0.39 mg/g, 0.197 mg/g, 0.098 mg/g, 0.049 mg/g, 0.025 mg/g, and 0.012 mg/g. There were 5 to 7 replicates for each two-choice bioassay. For 9-oxo-decanoic acid, a multiple-choice bioassay was conducted at six concentrations including 0.00 mg/g, 0.124 mg/g, 0.062 mg/g, 0.031 mg/g, 0.016 mg/g, and 0.007 mg/g. There were 11 replicates. For 11-oxo-tridecanoic acid, a multiple-choice bioassay was conducted at five concentrations including 0.00 mg/g, 7.71 mg/g, 3.86 mg/g, 1.93 mg/g, and 0.96 mg/g. There were 6 replicates. For 12-oxo-tetradecanoic acid, a multiple-choice bioassay was conducted at six concentrations including 0.00 mg/g, 1.15 mg/g, 0.58 mg/g, 0.29 mg/g, 0.14 mg/g, and 0.07 mg/g. There were 7 replicates.
The following paired two-choice bioassays were conducted: 1) 10-oxo-dodecanoic acid at 1.14 mg/g vs trans, trans-2,4-heptadienal at 0.19 mg/g; 2) 11-oxo-dodecanoic acid at 1.08 mg/g vs trans, trans-2,4-heptadienal at 0.19 mg/g; 3) 10-oxo-dodecanoic acid at 1.14 mg/g vs 2-ethyl-3,6 (5)-dimethylpyrazine at 0.004 mg/g; 4) 11-oxo-dodecanoic acid at 1.08 mg/g vs 2-ethyl-3,6 (5)-dimethylpyrazine at 0.004 mg/g. The results are shown in Table 2 below, and FIG. 29A to FIG. 29D.

[4] = system: worker fire ants; assay: Attraction bioassay (paired two choice, treated tube vs acetone control); assay type: in vivo, S. invicta; conditions: individual oxo acids, 20 μl acetone solution: 2.029 mg/ml 10-oxo-dodecanoic acid, 1.96 mg/ml 11-oxo-dodecanoic acid; host tray; 1 hour; paired t test
[5] = system: fire ants; assay: Feeding bioassay (laboratory paired two-choice, treated vs untreated soybean oil); assay type: in vivo, S. invicta; conditions: soybean oil with 1.90 μg/mg 10-oxo-dodecanoic acid, 7.273 μg/mg 11-oxo-dodecanoic acid, or 0.36 μg/mg mixture (38.12%/61.88%) vs untreated oil; 24 hours; paired t test
[6] = Bioassay 3: 10-oxo-dodecanoic acid 1.14 mg/g vs 2-ethyl-3,6 (5)-dimethylpyrazine 0.004 mg/g
[7] = Bioassay 3: 10-oxo-dodecanoic acid at 1.14 mg/g vs 2-ethyl-3,6 (5)-dimethylpyrazine at 0.004 mg/g
[8] = Bioassay 4: 11-oxo-dodecanoic acid 1.08 mg/g vs 2-ethyl-3,6 (5)-dimethylpyrazine 0.004 mg/g
[9] = Bioassay 4: 11-oxo-dodecanoic acid at 1.08 mg/g vs 2-ethyl-3,6 (5)-dimethylpyrazine at 0.004 mg/g
[10] = first multiple-choice bioassay (about 1 to 9 mg/g)
[11] = control 0.00 mg/g, field, about 2 hours
[12] = Bioassay 1: 10-oxo-dodecanoic acid 1.14 mg/g vs trans, trans-2,4-heptadienal 0.19 mg/g
[13] = Bioassay 1: 10-oxo-dodecanoic acid at 1.14 mg/g vs trans, trans-2,4-heptadienal at 0.19 mg/g
[14] = Bioassay 2: 11-oxo-dodecanoic acid 1.08 mg/g vs trans, trans-2,4-heptadienal 0.19 mg/g
[15] = Bioassay 2: 11-oxo-dodecanoic acid at 1.08 mg/g vs trans, trans-2,4-heptadienal at 0.19 mg/g

## 2-ethyl-3,6 (5)-dimethylpyrazine [reference compound]
[1]
  concentration mostly preferred by fire ants: 30 ng/µL
[2]
  difference among treatments and control in oil consumption / feeding preference on soybean oil (one-way ANOVA): significant difference
  concentration at which oil consumption was numerically the highest: 0.004 mg/g
[2]; multiple-choice, 0.064 to 0.002 mg/g tested
  concentration that significantly improved the feeding preference of fire ant on soybean oil: 0.002 mg/g and 0.004 mg/g
[3]; [6]
  difference in the effect on oil consumption between the two compounds: significantly higher oil consumption
[3]; [7]
  Mean oil consumption: 19.53 mg
[3]; [8]
  difference in the effect on oil consumption between the two compounds: significantly higher oil consumption
[3]; [9]
  Mean oil consumption: 21.75 mg

## CCC(=O)CCCCCCC(=O)O [8-oxo-decanoic acid]
[2]
  difference among treatments and control in oil consumption / feeding preference on soybean oil (one-way ANOVA): no significant difference

## CC(=O)CCCCCC=CC(=O)O [9-oxo-2-decenoic acid]
[3]; 0.049 mg/g in soybean oil vs control
  feeding preference of fire ant on soybean oil: significantly improved

## CC(=O)CCCCCCCC(=O)O [9-oxo-decanoic acid]
[2]
  difference among treatments and control in oil consumption / feeding preference on soybean oil (one-way ANOVA): no significant difference

## CCC(=O)CCCCCCCCC(=O)O [10-oxo-dodecanoic acid]
[4]
  difference in the number of ants between treatment vials and control vials: significant
[2]; [10]
  concentration at which the effect on oil consumption was statistically significant compared to the control oil: 1.14 mg/g
[2]; [11]
  effect of different concentrations on oil consumption (one-way ANOVA): significant effect
[2]; second multiple-choice bioassay (0.07 to about 0.5 mg/g)
  concentration at which the effect on oil consumption was statistically significant compared to the control oil: 0.51 mg/g
[5]
  difference in oil consumption between treatment and control: significant
[3]; [12]
  difference in the effect on oil consumption between the two compounds: no significant difference
[3]; [13]
  Mean oil consumption: 23.84 mg
[3]; [6]
  difference in the effect on oil consumption between the two compounds: significant difference
[3]; [7]
  Mean oil consumption: 12.69 mg

## CC(=O)CCCCCCCCCC(=O)O [11-oxo-dodecanoic acid]
[4]
  difference in the number of ants between treatment vials and control vials: significant difference
[2]; dosage bioassays in soybean oil
  most active / most effective concentration: around 1.08 mg/g
[2]; [10]
  concentration at which the effect on oil consumption was statistically significant compared to the control oil: 1.08 mg/g
[2]; [11]
  effect of different concentrations on oil consumption (one-way ANOVA): significant effect
[2]; second multiple-choice bioassay: 10-oxo 0.51, 0.28, 0.142, 0.07 mg/g, 11-oxo 0.54, 0.27, 0.14, 0.07 mg/g, control 0.00 mg/g, field, about 2 hours
  effect on oil consumption (one-way ANOVA): no significant effect
[5]
  difference in oil consumption between treatment and control: significant difference
[3]; [14]
  difference in the effect on oil consumption between the two compounds: no significant difference
[3]; [15]
  Mean oil consumption: 21.23 mg
[3]; [8]
  difference in the effect on oil consumption between the two compounds: significant difference
[3]; [9]
  Mean oil consumption: 15.8 mg

## CCC(=O)CCCCCCCCCC(=O)O [11-oxo-tridecanoic acid]
[2]
  difference among treatments and control in oil consumption / feeding preference on soybean oil (one-way ANOVA): no significant difference

## CCC(=O)CCCCCCCCCCC(=O)O [12-oxo-tetradecanoic acid]
[2]
  difference among treatments and control in oil consumption / feeding preference on soybean oil (one-way ANOVA): no significant difference

## CC/C=C/C=C/C=O [trans, trans-2,4-heptadienal, reference compound]
[2]
  difference among treatments and control in oil consumption / feeding preference on soybean oil (one-way ANOVA): did not significantly improve; also recorded: not significantly different
  concentration at which oil consumption was numerically the highest: 0.19 mg/g
[3]; [12]
  difference in the effect on oil consumption between the two compounds: no significant difference
[3]; [13]
  Mean oil consumption: 22.83 mg
[3]; [14]
  difference in the effect on oil consumption between the two compounds: no significant difference
[3]; [15]
  Mean oil consumption: 19.95 mg
